Non-standard residues stand in square brackets, D forms with d. No end group written: not given here. hArg = N=C(N)NCCCC[C@H](N)C(=O)O; Agb = N=C(N)NCC[C@H](N)C(=O)O; Agp = N=C(N)NC[C@H](N)C(=O)O; Orn = NCCC[C@H](N)C(=O)O; Dab = NCC[C@H](N)C(=O)O; Dap = NC[C@H](N)C(=O)O

The first test has as its system S. aureus (MRSA SAP0017). It counts as cell-based, Staphylococcus aureus. Particulars: SPOT synthesized control peptides, determined as in Table 5; Table 7. The protocol:
Methods of assessment of anti-biofilm activity: MRSA S. aureus strain SAP0017 biofilm formation was initially analyzed using a static abiotic solid surface assay as described elsewhere (de la Fuente-Nunez et al., 2012) and shown graphically in FIG. 2. Dilutions (1/100) of overnight cultures were incubated in BM2 biofilm-adjusted medium [62 mM potassium phosphate buffer (pH 7), 7 mM (NH4)2SO4, 2 mM MgSO4, 10 μM FeSO4, 0.4% (wt/vol) glucose, 0.5% (wt/vol) Casamino Acids], or a nutrient rich medium such as Tryptic soy broth supplemented with 1% glucose, in polypropylene microtiter plates (Falcon, United States) in the absence (control) or presence of peptide. Peptide was added at time zero (prior to adding the diluted, overnight cultures) in varying concentrations, and the amount biofilm formation was recorded after 22-46 h incubation for most bacteria. To quantify biofilm growth, planktonic cells were removed and biofilm cells adhering to the side of the wells were stained with crystal violet, and absorbance at 595 nm was measured using a microtiter plate reader (Bio-Tek Instruments Inc., United States).
As for C87 (V[Dap]LIVAVRIWRR) [Peptide C87], the “% Biofilm Inhibition” value turned out to be 73%.
As to C69 (V[Agb]LIVAVRIWRR) [Peptide C69], the “% Biofilm Inhibition” value came out at 81%.
As for “C109 (VRLIVA[Orn]RIWRR-NH2; N-terminus assumed; SMILES CC[C@H](C)[C@H](NC(=O)[C@H](CCCNC(=N)N)NC(=O)[C@H](CCCN)NC(=O)[C@H](C)NC(=O)[C@@H](NC(=O)[C@@H](NC(=O)[C@H](CC(C)C)NC(=O)[C@H](CCCNC(=N)N)NC(=O)[C@@H](N)C(C)C)[C@@H](C)CC)C(C)C)C(=O)N[C@@H](Cc1c[nH]c2ccccc12)C(=O)N[C@@H](CCCNC(=N)N)C(=O)N[C@@H](CCCNC(=N)N)C(N)=O) [Peptide C109]”, the “% Biofilm Inhibition” value was 104%.
The same measure, in the same setting: the value for C58 (V[Agp]LIVAVRIWRR) [Peptide C58] was 96%; that for C85 (VRLIVAVR[hArg]WRR) [Peptide C85] was 99%.
Still for that read-out and setting: the value for C111 (VRLIVAVRI[Orn]RR) [Peptide C111] was 92%; that for “C108 (VRLI[Orn]AVRIWRR-NH2; N-terminus assumed; SMILES CC[C@H](C)[C@H](NC(=O)[C@H](CC(C)C)NC(=O)[C@H](CCCNC(=N)N)NC(=O)[C@@H](N)C(C)C)C(=O)N[C@@H](CCCN)C(=O)N[C@@H](C)C(=O)N[C@H](C(=O)N[C@@H](CCCNC(=N)N)C(=O)N[C@H](C(=O)N[C@@H](Cc1c[nH]c2ccccc12)C(=O)N[C@@H](CCCNC(=N)N)C(=O)N[C@@H](CCCNC(=N)N)C(N)=O)[C@@H](C)CC)C(C)C) [Peptide C108]” was 104%; that for C105 (VRLIVAVRIWR[Dab]) [Peptide C105] was 96%.
Still for that read-out and setting: the value for C96 (VR[Dab]IVAVRIWRR) [Peptide C96] was 89%.
Turning to C93 (VRLIVAV[Dap]IWRR) [Peptide C93], the “% Biofilm Inhibition” value is reported as 71%.
With “C110 (VRLIVAVR[Orn]WRR-NH2; N-terminus assumed; SMILES CC[C@H](C)[C@H](NC(=O)[C@H](CC(C)C)NC(=O)[C@H](CCCNC(=N)N)NC(=O)[C@@H](N)C(C)C)C(=O)N[C@H](C(=O)N[C@@H](C)C(=O)N[C@H](C(=O)N[C@@H](CCCNC(=N)N)C(=O)N[C@@H](CCCN)C(=O)N[C@@H](Cc1c[nH]c2ccccc12)C(=O)N[C@@H](CCCNC(=N)N)C(=O)N[C@@H](CCCNC(=N)N)C(N)=O)C(C)C)C(C)C) [Peptide C110]”, the “% Biofilm Inhibition” value was found to be 100%.
Still for that read-out and setting: as for C66 (VRLIVAVRI[Agp]RR) [Peptide C66], the figure is 107%.
As for C91 (VRLIV[Dap]VRIWRR) [Peptide C91], the “% Biofilm Inhibition” value turned out to be 76%.
“C67 (VRLIVAVRIW[Agp]R-NH2; N-terminus assumed; SMILES CC[C@H](C)[C@H](NC(=O)[C@H](CCCNC(=N)N)NC(=O)[C@@H](NC(=O)[C@H](C)NC(=O)[C@@H](NC(=O)[C@@H](NC(=O)[C@H](CC(C)C)NC(=O)[C@H](CCCNC(=N)N)NC(=O)[C@@H](N)C(C)C)[C@@H](C)CC)C(C)C)C(C)C)C(=O)N[C@@H](Cc1c[nH]c2ccccc12)C(=O)N[C@@H](CNC(=N)N)C(=O)N[C@@H](CCCNC(=N)N)C(N)=O) [Peptide C67]”: the “% Biofilm Inhibition” value turned out to be 105%.
Regarding C80 (V[hArg]LIVAVRIWRR) [Peptide C80], the “% Biofilm Inhibition” value was determined as 99%.
Same read-out and setting: the value for C65 (VRLIVAVR[Agp]WRR) [Peptide C65] was 107%.
As to “C76 (VRLIVAVR[Agb]WRR; not fully specified (C-terminus); printed as VRLIVAVRGbutWRR) [Peptide C76]”, the “% Biofilm Inhibition” value is reported as 104%.
For the substance C81 (VR[hArg]IVAVRIWRR) [Peptide C81], the “% Biofilm Inhibition” value was 107%.
Still for that read-out and setting: as for “C63 (VRLIVA[Agp]RIWRR-NH2; N-terminus assumed; SMILES CC[C@H](C)[C@H](NC(=O)[C@H](CCCNC(=N)N)NC(=O)[C@H](CNC(=N)N)NC(=O)[C@H](C)NC(=O)[C@@H](NC(=O)[C@@H](NC(=O)[C@H](CC(C)C)NC(=O)[C@H](CCCNC(=N)N)NC(=O)[C@@H](N)C(C)C)[C@@H](C)CC)C(C)C)C(=O)N[C@@H](Cc1c[nH]c2ccccc12)C(=O)N[C@@H](CCCNC(=N)N)C(=O)N[C@@H](CCCNC(=N)N)C(N)=O) [Peptide C63]”, the figure is 105%; as for “C98 (VRLI[Dab]AVRIWRR; not fully specified (C-terminus)) [Peptide C98]”, 103%; as for C89 (VRL[Dap]VAVRIWRR) [Peptide C89], 99%.
Regarding C104 (VRLIVAVRIW[Dab]R) [Peptide C104], the “% Biofilm Inhibition” value was 93%.
The same measure, in the same setting: as for “C84 (VRLIVA[hArg]RIWRR; not fully specified (C-terminus)) [Peptide C84]”, the figure is 105%.
With “C101 (VRLIVAV[Dab]IWRR-NH2; N-terminus assumed; SMILES CC[C@H](C)[C@H](NC(=O)[C@H](CCN)NC(=O)[C@@H](NC(=O)[C@H](C)NC(=O)[C@@H](NC(=O)[C@@H](NC(=O)[C@H](CC(C)C)NC(=O)[C@H](CCCNC(=N)N)NC(=O)[C@@H](N)C(C)C)[C@@H](C)CC)C(C)C)C(C)C)C(=O)N[C@@H](Cc1c[nH]c2ccccc12)C(=O)N[C@@H](CCCNC(=N)N)C(=O)N[C@@H](CCCNC(=N)N)C(N)=O) [Peptide C101]”, the “% Biofilm Inhibition” value is recorded as 103%.
Still for that read-out and setting: as for “C60 (VRL[Agp]VAVRIWRR-NH2; N-terminus assumed; SMILES CC[C@H](C)[C@H](NC(=O)[C@H](CCCNC(=N)N)NC(=O)[C@@H](NC(=O)[C@H](C)NC(=O)[C@@H](NC(=O)[C@H](CNC(=N)N)NC(=O)[C@H](CC(C)C)NC(=O)[C@H](CCCNC(=N)N)NC(=O)[C@@H](N)C(C)C)C(C)C)C(C)C)C(=O)N[C@@H](Cc1c[nH]c2ccccc12)C(=O)N[C@@H](CCCNC(=N)N)C(=O)N[C@@H](CCCNC(=N)N)C(N)=O) [Peptide C60]”, the figure is 104%; as for C79 (VRLIVAVRIWR[Agb]) [Peptide C79], 72%.
The same measure, in the same setting: as for C64 (VRLIVAV[Agp]IWRR) [Peptide C64], the figure is 107%.
The same measure, in the same setting: the value for C86 (VRLIVAVRI[hArg]RR) [Peptide C86] was 75%; that for C62 (VRLIV[Agp]VRIWRR) [Peptide C62] was 106%; that for C88 (VR[Dap]IVAVRIWRR) [Peptide C88] was 104%.

Still in this test, the particulars now being: SPOT synthesized peptide, ~12.5 μM, clinical MRSA strain, crystal violet assay.
Turning to “VRLIVAVRIWROrn (VRLIVAVRIWR[Orn]-NH2; N-terminus assumed; SMILES CC[C@H](C)[C@H](NC(=O)[C@H](CCCNC(=N)N)NC(=O)[C@@H](NC(=O)[C@H](C)NC(=O)[C@@H](NC(=O)[C@@H](NC(=O)[C@H](CC(C)C)NC(=O)[C@H](CCCNC(=N)N)NC(=O)[C@@H](N)C(C)C)[C@@H](C)CC)C(C)C)C(C)C)C(=O)N[C@@H](Cc1c[nH]c2ccccc12)C(=O)N[C@@H](CCCNC(=N)N)C(=O)N[C@@H](CCCN)C(N)=O) [Peptide 1018-k36]”, the “% Residual MRSA biofilm growth compared to untreated control” value (“% Residual MRSA biofilm growth” for short) is 20%.
In the case of “DabRLIVAVRIWRR ([Dab]RLIVAVRIWRR-NH2; N-terminus assumed; SMILES CC[C@H](C)[C@H](NC(=O)[C@H](CCCNC(=N)N)NC(=O)[C@@H](NC(=O)[C@H](C)NC(=O)[C@@H](NC(=O)[C@@H](NC(=O)[C@H](CC(C)C)NC(=O)[C@H](CCCNC(=N)N)NC(=O)[C@@H](N)CCN)[C@@H](C)CC)C(C)C)C(C)C)C(=O)N[C@@H](Cc1c[nH]c2ccccc12)C(=O)N[C@@H](CCCNC(=N)N)C(=O)N[C@@H](CCCNC(=N)N)C(N)=O) [Peptide 1018-k13]”, the “% Residual MRSA biofilm growth” value amounted to 59%.
As for “IVKWIAQWKLVG (IVKWIAQWKLVG-NH2) [Imax-10]”, the “% Residual MRSA biofilm growth” value was determined as 100%.
Still for that read-out and setting: the value for “VRLIVHarVRIWRR (VRLIV[hArg]VRIWRR-NH2; N-terminus assumed; SMILES CC[C@H](C)[C@H](NC(=O)[C@H](CCCNC(=N)N)NC(=O)[C@@H](NC(=O)[C@H](CCCCNC(=N)N)NC(=O)[C@@H](NC(=O)[C@@H](NC(=O)[C@H](CC(C)C)NC(=O)[C@H](CCCNC(=N)N)NC(=O)[C@@H](N)C(C)C)[C@@H](C)CC)C(C)C)C(C)C)C(=O)N[C@@H](Cc1c[nH]c2ccccc12)C(=O)N[C@@H](CCCNC(=N)N)C(=O)N[C@@H](CCCNC(=N)N)C(N)=O) [Peptide 1018-r30]” was 57%; that for “HarRLIVAVRIWRR ([hArg]RLIVAVRIWRR-NH2; N-terminus assumed; SMILES CC[C@H](C)[C@H](NC(=O)[C@H](CCCNC(=N)N)NC(=O)[C@@H](NC(=O)[C@H](C)NC(=O)[C@@H](NC(=O)[C@@H](NC(=O)[C@H](CC(C)C)NC(=O)[C@H](CCCNC(=N)N)NC(=O)[C@@H](N)CCCCNC(=N)N)[C@@H](C)CC)C(C)C)C(C)C)C(=O)N[C@@H](Cc1c[nH]c2ccccc12)C(=O)N[C@@H](CCCNC(=N)N)C(=O)N[C@@H](CCCNC(=N)N)C(N)=O) [Peptide 1018-r25]” was 64%; that for “VRLIVAVRIWRHar (VRLIVAVRIWR[hArg]-NH2; N-terminus assumed; SMILES CC[C@H](C)[C@H](NC(=O)[C@H](CCCNC(=N)N)NC(=O)[C@@H](NC(=O)[C@H](C)NC(=O)[C@@H](NC(=O)[C@@H](NC(=O)[C@H](CC(C)C)NC(=O)[C@H](CCCNC(=N)N)NC(=O)[C@@H](N)C(C)C)[C@@H](C)CC)C(C)C)C(C)C)C(=O)N[C@@H](Cc1c[nH]c2ccccc12)C(=O)N[C@@H](CCCNC(=N)N)C(=O)N[C@@H](CCCCNC(=N)N)C(N)=O) [Peptide 1018-r36]” was 27%.

For the origin of these results see patent US20210138025A1, “CATIONIC PEPTIDES WITH IMMUNOMODULATORY AND/OR ANTI-BIOFILM ACTIVITIES” (priority 2018, published 2021).
